# From the NIST ThermoML archive (doi:10.1021/je049712l)
# ± gives the expanded uncertainty stated by the source.
# Settings: 101.33 kPa, Liquid, Vibrating tube method
smiles,measurement,setting,value
CO [methanol],mass density,273 K,800 ± 24 kg/m3
same,mass density,298 K,787 ± 24 kg/m3
same,mass density,303 K,786 ± 24 kg/m3
same,mass density,313 K,779 ± 24 kg/m3
same,mass density,323 K,768 ± 24 kg/m3
